The text below walks through data of US11160770B2, “Compounds, compositions and methods for treating oxidative DNA damage disorders” (Indiana University Research and Technology Corporation, priority 2011, dated 2021).

The test system of data set [1] is sensory neuronal cultures. The format is cell-based, rat. How it is done:
(§1) EXAMPLE. Cell Cultures. Neuronal cultures were prepared from adult male (150-175 g) Sprague-Dawley rats (Harlan, Indianapolis, Ind.) as described in the published literature. Briefly, hippocampal cells were dissociated using papain and mechanical agitation and separated by gradient centrifugation. The pellet of cells from a discontinuous gradient of Optiprep in L-15 media was washed then resuspended in 1 mL of growth media consisting of Neurobasal Medium supplemented with 0.5 mM L-glutamine, 2% B-27 Supplement minus AO, 50 mg/mL Penicillin-Streptomycin, and 5 ng/mL of Basic Fibroblast Growth Factor (BFGF). Approximately 60,000 cells were plated onto poly-D-lysine and laminin coated plates and grown for 6-14 days in 5% CO2 at 37° C. Growth medium was changed every other day. For sensory neuronal culture, cells were dissociated using collagenase and mechanical dissociation. Approximately 30,000 DRG cells were plated into each well of 12 well culture plates or onto Lab-Tek chamber slides all precoated with poly-D-lysine and laminin. The sensory neurons were maintained in F-12 media supplemented with 10% horse serum, 2 mM glutamine, 100 μg/mL normocin, 50 μg/mL penicillin, 50 μg/mL streptomycin, 50 μM 5-fluoro-2′-deoxyuridine, 150 μM uridine, and 30 ng/mL NGF in 3% CO2 at 37° C. Growth medium was changed every other day and the cells were used after 11-13 days of culture.
EXAMPLE. Assay Methods. Sensory neuronal cultures grown on Lab-Tek microscope chamber slides were processed for immunofluorescence as previously published using a peripherin antibody (1:500) and HA antibody (1:500)[28]. Images were collected in red (peripherin), green (HA), and bright-field modes. A Zeiss LSM offline browser (R4.0: Carl Zeiss Inc.; Thornwood, N.Y.) was used to determine co-localization of peripherin and HA. For trypan blue exculsion, equal volume of 0.4% (w/v) Trypan blue to cell suspension were combined, mixed and scored under phase contrast microscope. […]
EXAMPLE. […] The mean % of cells surviving 24 h after exposure to IR as measured by trypan blue exclusion was evaluated. […]

The test system of data set [2] is sensory neurons. Description: Capsaicin-evoked iCGRP release from sensory neurons after ionizing radiation. It is filed as cell-based, rat. On the procedure:
as §1, with “The sensory neurons were maintained in F-12 media supplemented with 10% horse serum, 2 mM glutamine, 100 μg/mL normocin, 50 μg/mL penicillin, 50 μg/mL streptomycin, 50 μM 5-fluoro-2′-deoxyuridine, 150 μM uridine, and 30 ng/mL NGF in 3% CO2 at 37° C. Growth medium was changed every other day and the cells were used after 11-13 days of culture.” left out
For release studies, the sensory neuronal cultures were washed once with HEPES buffer consisting of (in mM) 25 HEPES, 135 NaCl, 3.5 KCl, 2.5 CaCl2, 1 MgCl2, 3.3 D-glucose, and 0.1% bovine serum albumin, pH 7.4 and maintained at 37° C. […] After each incubation, the buffer was removed and the amount of CGRP in each sample was measured using radioimmunoassay as previously described. […] Total content was calculated by adding the total amount released in all incubations to the amount measured in the cells. The release data is calculated as fmol released/well/[…] or as a % of the total peptide content in the cells. […]
EXAMPLE. […] For these studies, the initially determined effects of exposing neuronal cultures to single or multiple doses of 10 Gy of IR on the content and release of iCGRP. 24 h after exposing sensory neurons to either one or two once-daily doses of 10 Gy, there was no significant effect on resting or capsaicin-evoked iCGRP release (as measured in fmol released/well of cells/10 min) or on the total content of CGRP in the cultures. […]

For data set [3], the system named is DRG cells. The data set can be described thus: FACS apoptosis assay in cisplatin treated DRG cells. The format is cell-based. Particulars: cisplatin 50 μM, E3330 50 μM co-treatment, 3 days. On the procedure:
EXAMPLE. DRG cells are treated with cisplatin (50 μM), with and without co-treatment with E3330 (50 μM), for 3 days. The cells are evaluated by FACS assay and compared to control.

For `CCCCCCCCC/C(=C\C1=C(C)C(=O)C(OC)=C(OC)C1=O)C(=O)O` [Example 28], in data set [1] (20 μM E3330, 3 days prior to and throughout 3 days of radiation (10 Gy/day), 24 h after last dose), the “cell viability (effect on IR-induced cell death)” value is reported as “effectively blocks IR's effects”. In addition, the cell viability in data set [1] (male, Sprague-Dawley, rat, 20 μM) is 51±3%. Further, the “cell viability (% cells surviving, trypan blue exclusion)” value in data set [1] (male, Sprague-Dawley, rat, 6 days, 10 μM) is 81±3%. Besides, the “capsaicin-evoked iCGRP release after radiation” value in data set [2] (10 μM or 20 μM E3330, 3 doses of 10 Gy, 30 nM capsaicin, 24 h after last dose) is “completely blocked the effects of radiation on peptide release”. Besides, the “capsaicin-evoked iCGRP release in control cells” value in data set [2] (10 μM or 20 μM E3330, no radiation, 30 nM capsaicin) is given as “did not alter capsaicin-evoked release in control cells”. The “evoked release of iCGRP” value in data set [2] (20 μM E3330, APE1 knock-down and 266-177 overexpression, 10 Gy per day for three days) is listed as 5.9±0.5 % of total content. Also, in data set [3], the “apoptosis arising from cisplatin treatment” value was “decrease apoptosis”.

A word on the cell viability: it is the share of living cells, or the viability signal relative to a control. A lower cell viability goes with more harm to the cells.
